From publication PMC9078504, “Antiacetylcholinesterase triterpenes from the fruits of Cimicifuga yunnanensis” (RSC Advances, 2018)

Target: T1, acetylcholinesterase (AChE) (Homo sapiens, UniProt P22303)
T1 construct: derived from human erythrocytes (Sigma)
Test: Ellman spectrophotometric assay, acetylthiocholine hydrolysis at […] nm
Format: biochemical

T1 sequence (P22303 32-614): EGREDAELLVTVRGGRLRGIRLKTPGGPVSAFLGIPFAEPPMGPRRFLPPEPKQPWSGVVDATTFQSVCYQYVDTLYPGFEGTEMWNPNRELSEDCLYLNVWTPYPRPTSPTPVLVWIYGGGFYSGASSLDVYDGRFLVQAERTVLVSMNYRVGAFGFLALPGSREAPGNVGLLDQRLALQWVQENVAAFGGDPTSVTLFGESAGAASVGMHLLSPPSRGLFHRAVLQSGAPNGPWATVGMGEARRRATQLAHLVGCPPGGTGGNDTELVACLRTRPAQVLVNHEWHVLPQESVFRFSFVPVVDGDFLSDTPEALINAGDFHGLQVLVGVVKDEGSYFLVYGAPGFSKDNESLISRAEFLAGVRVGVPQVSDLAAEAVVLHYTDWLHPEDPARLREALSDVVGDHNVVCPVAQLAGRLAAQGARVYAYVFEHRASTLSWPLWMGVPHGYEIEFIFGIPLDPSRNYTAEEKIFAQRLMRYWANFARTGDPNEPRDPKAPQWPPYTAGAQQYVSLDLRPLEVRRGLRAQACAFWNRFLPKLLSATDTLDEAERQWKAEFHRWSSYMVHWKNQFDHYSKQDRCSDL

| Structure (SMILES) | IC50 [nM] |
| --- | --- |
| CC(=O)O[C@@H]1C[C@@]23C[C@@]24CC[C@H](O[C@@H]2OC[C@H](O)[C@H](O)[C@H]2O)C(C)(C)[C@@H]4CC=C3[C@]2(C)C(=O)C(=O)[C@@]3(O[C@@H]([C@H](O)C(C)(C)O)C[C@H]3C)[C@@]12C [compound 1, (3β,12β,17S,20R,23R,24S)-17,23-Epoxy-15,16-dione-12-acetoxy-3,25-dihydroxy-7-en-9,19-cycloart-3-O-α-larabinopyranoside] | 1580 |
| Cc1cc(C=O)nc2c1[C@@]1(C)C[C@H](O)[C@@]34C[C@@]35CC[C@H](O[C@@H]3OC[C@H](O)[C@H](O)[C@H]3O)C(C)(C)[C@@H]5CC=C4[C@]1(C)C2 [compound 2, (3β,11β)-11-Hydroxy-16,23-nitrilo-7,17(20),22-trien-24-formyl-25,26,27-trinor-9,19-cycloart-3-O-α-larabinopyranoside] | 3870 |
